The IC50 is the concentration that inhibits the measured activity by half.

SMILES strings stand for the structures.

The values that follow come from patent US10370343B2, “[6,6] Fused bicyclic HDAC8 inhibitors” (FORMA Therapeutics, Inc., priority 2015, dated 2019).

In the assay the target is T1, Full length human recombinant HDAC8 protein (Homo sapiens, UniProt Q9BY41).
T1 construct: Full length human recombinant HDAC8 protein was expressed in baculoviral system; made in house
T1 sequence (Q9BY41 1-377): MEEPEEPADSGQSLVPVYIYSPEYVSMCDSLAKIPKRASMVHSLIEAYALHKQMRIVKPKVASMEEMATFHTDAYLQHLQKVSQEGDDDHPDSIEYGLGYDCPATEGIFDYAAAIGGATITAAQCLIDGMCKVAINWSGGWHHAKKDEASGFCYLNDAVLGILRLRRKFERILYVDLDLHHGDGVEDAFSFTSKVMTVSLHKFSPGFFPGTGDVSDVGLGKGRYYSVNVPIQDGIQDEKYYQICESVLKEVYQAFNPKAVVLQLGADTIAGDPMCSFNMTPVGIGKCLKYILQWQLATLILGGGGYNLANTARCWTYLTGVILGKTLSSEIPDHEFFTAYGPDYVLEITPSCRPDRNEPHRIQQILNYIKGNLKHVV
Kind of assay: In vitro histone deacetylase assay: enzymatic HDAC8 electrophoretic mobility shift assay. It is filed as biochemical. To be noted: electrophoretic mobility shift assay; enzyme 1 nM; 2 μM fluorescently labeled peptide substrate RHKK(Ac)-NH2; 25° C.; 12 concentrations; read-out: HDAC8 IC50. The method, then: The enzymatic HDAC8 assay was performed using electrophoretic mobility shift assay. Full length human recombinant HDAC8 protein was expressed in baculoviral system and purified by affinity chromatography. The enzymatic reactions were assembled in 384 well plates in a total volume of 25 μL in a reaction buffer composing: 100 mM HEPES, pH7.5, 25 mM KCl, 0.1% bovine serum albumin, 0.01% Triton X-100, 1% DMSO (from compounds) 2 μM of the fluorescently labeled peptide substrate and enzyme. The enzyme was added at a final concentration of 1 nM. The peptide substrate RHKK(Ac)—NH2 was used. The compounds were tested at 12 concentrations spaced by 3× dilution intervals. Negative control samples (0%-inhibition in the absence of inhibitor) and positive control samples (100%-inhibition) were assembled in replicates of four in each assay plate. The reactions were incubated at 25° C. and quenched by the addition of 45 μL of termination buffer (100 mM HEPES, pH 7.5, 0.01% Triton X-100, 0.05% SDS).
The terminated assay plates were analyzed on LabChip® 3000 microfluidic electrophoresis instrument (Perkin Elmer/Caliper Life Sciences). The fluorescence intensity of the electrophoretically separated de-acetylated product and substrate peptide was measured. Activity in each sample was determined as the product to sum ratio (PSR): P/(S+P), where P is the peak height of the product peptide and S is the peak height of the substrate peptide. Percent inhibition (Pinh) is determined using the following equation: Pinh=(PSR0%−PSRinh)/(PSR0%−PSR100%)*100, where PSRinh is the product sum ratio in the presence of inhibitor, PSR0% is the average product sum ration in the absence of inhibitor and PSR100% is the average product sum ratio in 100%-inhibition control samples. The IC50 values of inhibitors were determined by fitting the %-inhibition curves with 4 parameter dose-response model using XLfit 4 software.
Background: In EMSA bound probe runs differently from free probe, usually more slowly.

Turning to `O=C(NO)c1ccc2c(c1)N(Cc1cccc(C(F)(F)F)c1)CCS2(=O)=O` [Compound I-81, N-hydroxy-4-(3-(trifluoromethyl)benzyl)-3,4-dihydro-2H-benzo[b][1,4]thiazine-6-carboxamide-1,1-dioxide], the IC50 was under 0.025 µM.
The result for `CC1CN(Cc2ccccc2)c2cc(C(=O)NO)ccc2O1` (stereo not shown) [Compound I-83, 4-benzyl-N-hydroxy-2-methyl-3,4-dihydro-2H-benzo[b][1,4]oxazine-6-carboxamide] reads 0.1 to 1 µM.
`COc1ccc(CN2CC(C)Oc3ccc(C(=O)NO)cc32)cc1` (stereo not shown) [Compound I-84, N-hydroxy-4-(4-methoxybenzyl)-2-methyl-3,4-dihydro-2H-benzo[b][1,4]oxazine-6-carboxamide]: the IC50 was in the range of 0.025 to 0.1 µM.
For `CC1CN(Cc2ccc(S(C)(=O)=O)cc2)c2cc(C(=O)NO)ccc2O1` (stereo not shown) [Compound I-85, N-hydroxy-2-methyl-4-(4-(methylsulfonyl)benzyl)-3,4-dihydro-2H-benzo[b][1,4]oxazine-6-carboxamide], the IC50 is 0.1 to 1 µM.
For the molecule `O=C(NO)c1ccc2c(c1)N(S(=O)(=O)c1ccccc1)CCO2` [Compound I-86, N-hydroxy-4-(phenylsulfonyl)-3,4-dihydro-2H-benzo[b][1,4]oxazine-6-carboxamide], the IC50 lay in the range of 0.1 to 1 µM.
Turning to `COc1ccc(S(=O)(=O)N2CCOc3ccc(C(=O)NO)cc32)cc1` [Compound I-87, N-hydroxy-4-((4-methoxyphenyl)sulfonyl)-3,4-dihydro-2H-benzo[b][1,4]oxazine-6-carboxamide], the IC50 lay within 0.1 to 1 µM.
On to `O=C(NO)c1ccc2c(c1)N(Cc1ccc(S(=O)(=O)C(F)F)cc1)C(=O)CO2` [Compound I-88, 4-(4-((difluoromethyl)sulfonyl)benzyl)-N-hydroxy-3-oxo-3,4-dihydro-2H-benzo[b][1,4]oxazine-6-carboxamide], for which the IC50 was under 0.025 µM.
The same measure for `COc1ccc(CN2C(=O)COc3cc(C(=O)NO)ccc32)cc1` [Compound I-89, N-hydroxy-4-(4-methoxybenzyl)-3-oxo-3,4-dihydro-2H-benzo[b][1,4]oxazine-7-carboxamide]: 0.1 to 1 µM; for `CS(=O)(=O)c1ccc(CN2C(=O)COc3cc(C(=O)NO)ccc32)cc1` [Compound I-90, N-hydroxy-4-(4-(methylsulfonyl)benzyl)-3-oxo-3,4-dihydro-2H-benzo[b][1,4]oxazine-7-carboxamide]: 0.1 to 1 µM; for `COc1ccc(CN2C(=O)C(C)Oc3cc(C(=O)NO)ccc32)cc1` (stereo not shown) [Compound I-91, N-hydroxy-4-(4-methoxybenzyl)-2-methyl-3-oxo-3,4-dihydro-2H-benzo[b][1,4]oxazine-7-carboxamide]: 0.1 to 1 µM.
The same measure for `CC1Oc2cc(C(=O)NO)ccc2N(Cc2ccc(S(C)(=O)=O)cc2)C1=O` (stereo not shown) [Compound I-92, N-hydroxy-2-methyl-4-(4-(methylsulfonyl)benzyl)-3-oxo-3,4-dihydro-2H-benzo[b][1,4]oxazine-7-carboxamide]: 0.1 to 1 µM.
Take `CS(=O)(=O)c1ccc(CN2C(=O)COc3ccc(C(=O)NO)cc32)c(Cl)c1` [Compound I-93, 4-(2-chloro-4-(methylsulfonyl)benzyl)-N-hydroxy-3-oxo-3,4-dihydro-2H-benzo[b][1,4]oxazine-6-carboxamide]: the IC50 is under 0.025 µM.
Consider `CC(c1ccccc1F)N1C(=O)COc2ccc(C(=O)NO)cc21` (stereo not shown) [Compound I-95, 4-(1-(2-fluorophenyl)ethyl)-N-hydroxy-3-oxo-3,4-dihydro-2H-benzo[b][1,4]oxazine-6-carboxamide], for which the IC50 fell in the range of 0.025 to 0.1 µM.
As for `O=C(NO)c1ccc2c(c1)N(C(=O)N1CCCCC1)CCO2` [Compound I-97, N-hydroxy-4-(piperidine-1-carbonyl)-3,4-dihydro-2H-benzo[b][1,4]oxazine-6-carboxamide], the IC50 is over 1 µM.
The result for `COc1ccc(CN2C(=O)C(CCN(C)C)Oc3ccc(C(=O)NO)cc32)cc1` (stereo not shown) [Compound I-105, 2-(2-(dimethylamino)ethyl)-N-hydroxy-4-(4-methoxybenzyl)-3-oxo-3,4-dihydro-2H-benzo[b][1,4]oxazine-6-carboxamide] reads 0.025 to 0.1 µM; that for `O=C(NO)c1ccc2c(c1)N(c1nc3ccccc3[nH]1)CCC2` [Compound I-106, 1-(1H-benzo[d]imidazol-2-yl)-N-hydroxy-1,2,3,4-tetrahydroquinoline-7-carboxamide], 0.1 to 1 µM.
The result for `O=C(NO)c1ccc2c(c1)CCCN2c1nc2ccccc2[nH]1` [Compound I-107, 1-(1H-benzo[d]imidazol-2-yl)-N-hydroxy-1,2,3,4-tetrahydroquinoline-6-carboxamide] reads over 1 µM; that for `O=C(NO)c1ccc2c(c1)N(c1nc3ccccc3[nH]1)CCO2` [Compound I-108, 4-(1H-benzo[d]imidazol-2-yl)-N-hydroxy-3,4-dihydro-2H-benzo[b][1,4]oxazine-6-carboxamide], over 1 µM; that for `O=C(NO)c1ccc2c(c1)OCCN2c1nc2ccccc2[nH]1` [Compound I-109, 4-(1H-benzo[d]imidazol-2-yl)-N-hydroxy-3,4-dihydro-2H-benzo[b][1,4]oxazine-7-carboxamide], over 1 µM.
With `COCCn1c(N2CCCc3ccc(C(=O)NO)cc32)nc2ccccc21` [Compound I-110, N-hydroxy-1-(1-(2-methoxyethyl)-1H-benzo[d]imidazol-2-yl)-1,2,3,4-tetrahydroquinoline-7-carboxamide], the IC50 is 0.1 to 1 µM.
The same measure for `COCCn1c(N2CCCc3cc(C(=O)NO)ccc32)nc2ccccc21` [Compound I-111, N-hydroxy-1-(1-(2-methoxyethyl)-1H-benzo[d]imidazol-2-yl)-1,2,3,4-tetrahydroquinoline-6-carboxamide]: 0.1 to 1 µM; for `COc1ccc(C(=O)N2CCCc3ccc(C(=O)NO)cc32)cc1` [Compound I-112, N-hydroxy-1-(4-methoxybenzoyl)-1,2,3,4-tetrahydroquinoline-7-carboxamide]: 0.1 to 1 µM; for `COc1ccc(C(=O)N2CCOc3ccc(C(=O)NO)cc32)cc1` [Compound I-113, N-hydroxy-4-(4-methoxybenzoyl)-3,4-dihydro-2H-benzo[b][1,4]oxazine-6-carboxamide]: over 1 µM.
With `O=C(NO)c1ccc2c(c1)N(C(=O)C1CCCCC1)CCO2` [Compound I-114, 4-(cyclohexanecarbonyl)-N-hydroxy-3,4-dihydro-2H-benzo[b][1,4]oxazine-6-carboxamide], the IC50 is 0.1 to 1 µM.
For `COc1ccc(CN2CCOc3ccc(C(=O)NO)cc32)cc1` [Compound I-115, N-hydroxy-4-(4-methoxybenzyl)-3,4-dihydro-2H-benzo[b][1,4]oxazine-6-carboxamide], the IC50 lay in the range of 0.1 to 1 µM.
The result for `Cc1ccc(CN2CCOc3ccc(C(=O)NO)cc32)cc1` [Compound I-117, N-hydroxy-4-(4-methylbenzyl)-3,4-dihydro-2H-benzo[b][1,4]oxazine-6-carboxamide] reads 0.1 to 1 µM.
The same measure for `O=C(NO)c1ccc2c(c1)N(Cc1ccc(Cl)cc1)CCO2` [Compound I-118, 4-(4-chlorobenzyl)-N-hydroxy-3,4-dihydro-2H-benzo[b][1,4]oxazine-6-carboxamide]: 0.025 to 0.1 µM; for `O=C(NO)c1ccc2c(c1)N(Cc1ccc(C(F)(F)F)cc1)CCO2` [Compound I-119, N-hydroxy-4-(4-(trifluoromethyl)benzyl)-3,4-dihydro-2H-benzo[b][1,4]oxazine-6-carboxamide]: 0.025 to 0.1 µM; for `CS(=O)(=O)c1ccc(CN2CCOc3ccc(C(=O)NO)cc32)cc1` [Compound I-120, N-hydroxy-4-(4-(methylsulfonyl)benzyl)-3,4-dihydro-2H-benzo[b][1,4]oxazine-6-carboxamide]: 0.025 to 0.1 µM.
The same measure for `COc1cccc(CN2CCOc3ccc(C(=O)NO)cc32)c1` [Compound I-121, N-hydroxy-4-(3-methoxybenzyl)-3,4-dihydro-2H-benzo[b][1,4]oxazine-6-carboxamide]: 0.025 to 0.1 µM; for `Cc1cccc(CN2CCOc3ccc(C(=O)NO)cc32)c1` [Compound I-122, N-hydroxy-4-(3-methylbenzyl)-3,4-dihydro-2H-benzo[b][1,4]oxazine-6-carboxamide]: 0.025 to 0.1 µM.
